Measured values as given in ChEMBL document CHEMBL1201862, “PubChem BioAssay data set” (2004).
Calls of active or inactive are those of the source.

How the values were obtained:
[1] = inhibitors of intracellular T. cruzi replication, confirmation, NIH3T3 host cells, beta-gal luminescence (AID 2044); type: functional, cell-based;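 note: intracellular parasites grown in NIH/3T3 mouse fibroblasts as host cells; luminescent beta-galactosidase reporter signal from transgenic T. cruzi replicating inside host cells; inhibitors lower the luminescence signal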
[2] = cytotoxicity toward NIH3T3 fibroblasts, dose response, counter-screen, cell-based, ATP luminescence, mouse fibroblasts (AID 2010); type: functional;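 note: cells exposed to compound for about 90 hours before reading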
[3] = target: Bifunctional protein GlmU (Mycobacterium tuberculosis, UniProt P9WMN3); assay: Inhibitors of Mycobacterial Glucosamine-1-phosphate acetyl transferase (GlmU). Secondary screen.; design: species or system Mycobacterium tuberculosis H37Rv
Chain of Bifunctional protein GlmU (P9WMN3 whole entry): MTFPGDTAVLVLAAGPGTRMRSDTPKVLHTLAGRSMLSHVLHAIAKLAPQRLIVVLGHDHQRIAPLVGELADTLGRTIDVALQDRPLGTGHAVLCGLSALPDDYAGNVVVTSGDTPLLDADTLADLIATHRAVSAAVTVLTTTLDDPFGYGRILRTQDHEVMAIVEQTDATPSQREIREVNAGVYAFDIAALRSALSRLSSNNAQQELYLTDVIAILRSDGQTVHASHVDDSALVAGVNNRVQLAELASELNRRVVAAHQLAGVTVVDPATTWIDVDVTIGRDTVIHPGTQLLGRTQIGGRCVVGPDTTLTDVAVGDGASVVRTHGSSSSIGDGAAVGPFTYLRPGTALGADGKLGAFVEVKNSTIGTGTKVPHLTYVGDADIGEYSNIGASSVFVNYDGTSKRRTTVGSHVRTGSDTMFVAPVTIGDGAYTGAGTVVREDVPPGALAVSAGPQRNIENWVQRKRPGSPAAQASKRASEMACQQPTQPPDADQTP

[4] = cytotoxicity in KRAS-transformed pancreatic duct cells, primary screen, cell-based, fluorescence, HTS (AID 431); type: functional; conditions: Homo sapiens;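 note: cell line used: HPDE-C7K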
[5] = cytotoxicity in HPDE-C7 cells, cell-based, fluorescence, HTS (AID 430); type: functional; conditions: Homo sapiens
[6] = target: T1, Tyrosine-protein phosphatase non-receptor type 7 (Homo sapiens, UniProt P35236); assay: inhibitors of human HePTP phosphatase, […], biochemical, absorbance, leukemia target (AID 521); type: functional
T1 sequence (P35236 whole entry): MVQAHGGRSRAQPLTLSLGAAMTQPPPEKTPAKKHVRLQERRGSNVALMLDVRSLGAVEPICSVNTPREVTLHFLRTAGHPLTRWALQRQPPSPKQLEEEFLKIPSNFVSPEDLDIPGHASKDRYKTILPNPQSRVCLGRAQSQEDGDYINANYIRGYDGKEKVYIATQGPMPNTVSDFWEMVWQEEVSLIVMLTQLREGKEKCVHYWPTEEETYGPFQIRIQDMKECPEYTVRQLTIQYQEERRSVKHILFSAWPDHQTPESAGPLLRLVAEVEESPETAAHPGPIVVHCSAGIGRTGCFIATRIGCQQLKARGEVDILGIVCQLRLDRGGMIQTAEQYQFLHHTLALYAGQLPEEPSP

[7] = Luminescence Cell-Based Dose Confirmation HTS to Identify Inhibitors of Polyadenylation.; type: functional
[8] = HeLa 4N DNA content increase, dose response, cell-based, IC50 (AID 1117351); type: functional
[9] = HeLa 2N DNA content increase, dose response, cell-based, IC50 (AID 1117349); type: functional
[10] = A2780 ovarian cancer cell cytotoxicity, dose response, cytotoxicity control, plate reader, dry powder samples (AID 743046); type: functional, cell-based
[11] = NIH:OVCAR-3 ovarian cancer cell cytotoxicity, dose response, PAX8 inhibitor project, plate reader, dry powder samples (AID 743044); type: functional, cell-based
[12] = cytotoxicity in OVCAR8 ovarian cancer cells, dose response, PAX8 project, cell-based, plate reader, dry powder samples (AID 743197); type: functional; conditions: OVCAR-8
Paired box protein Pax-8 = Paired box protein Pax-8 (Homo sapiens, UniProt Q06710); assay: inhibitors of PAX8-driven TPO luciferase reporter, dose response, RMG-I cells, cherry-pick (AID 687027); type: functional, cell-based;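 note: luciferase reporter driven by Pax8 target thyroperoxidase promoter measured by SteadyGlo luminescence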
Chain of Paired box protein Pax-8 (Q06710 whole entry, the tested form may be a part): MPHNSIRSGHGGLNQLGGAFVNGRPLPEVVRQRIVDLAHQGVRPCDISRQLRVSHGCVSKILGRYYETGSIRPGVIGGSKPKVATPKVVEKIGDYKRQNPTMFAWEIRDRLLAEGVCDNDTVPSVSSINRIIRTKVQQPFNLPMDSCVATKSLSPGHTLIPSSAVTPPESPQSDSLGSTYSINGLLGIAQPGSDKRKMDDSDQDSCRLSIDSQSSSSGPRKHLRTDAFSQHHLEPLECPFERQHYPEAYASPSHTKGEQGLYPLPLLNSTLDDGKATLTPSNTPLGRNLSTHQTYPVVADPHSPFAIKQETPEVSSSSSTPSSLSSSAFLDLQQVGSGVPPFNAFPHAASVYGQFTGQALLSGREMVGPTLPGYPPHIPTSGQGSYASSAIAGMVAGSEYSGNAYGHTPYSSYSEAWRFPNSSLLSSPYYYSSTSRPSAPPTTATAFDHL

[13] = target: Disintegrin and metalloproteinase domain-containing protein 17 (Homo sapiens, UniProt P78536); assay: ADAM17 protease inhibitors, dose response, counter-screen for ADAM10 exosite inhibitor project, biochemical, quenched FRET substrate (AID 743253)
Chain of Disintegrin and metalloproteinase domain-containing protein 17 (P78536 whole entry, the tested form may be a part): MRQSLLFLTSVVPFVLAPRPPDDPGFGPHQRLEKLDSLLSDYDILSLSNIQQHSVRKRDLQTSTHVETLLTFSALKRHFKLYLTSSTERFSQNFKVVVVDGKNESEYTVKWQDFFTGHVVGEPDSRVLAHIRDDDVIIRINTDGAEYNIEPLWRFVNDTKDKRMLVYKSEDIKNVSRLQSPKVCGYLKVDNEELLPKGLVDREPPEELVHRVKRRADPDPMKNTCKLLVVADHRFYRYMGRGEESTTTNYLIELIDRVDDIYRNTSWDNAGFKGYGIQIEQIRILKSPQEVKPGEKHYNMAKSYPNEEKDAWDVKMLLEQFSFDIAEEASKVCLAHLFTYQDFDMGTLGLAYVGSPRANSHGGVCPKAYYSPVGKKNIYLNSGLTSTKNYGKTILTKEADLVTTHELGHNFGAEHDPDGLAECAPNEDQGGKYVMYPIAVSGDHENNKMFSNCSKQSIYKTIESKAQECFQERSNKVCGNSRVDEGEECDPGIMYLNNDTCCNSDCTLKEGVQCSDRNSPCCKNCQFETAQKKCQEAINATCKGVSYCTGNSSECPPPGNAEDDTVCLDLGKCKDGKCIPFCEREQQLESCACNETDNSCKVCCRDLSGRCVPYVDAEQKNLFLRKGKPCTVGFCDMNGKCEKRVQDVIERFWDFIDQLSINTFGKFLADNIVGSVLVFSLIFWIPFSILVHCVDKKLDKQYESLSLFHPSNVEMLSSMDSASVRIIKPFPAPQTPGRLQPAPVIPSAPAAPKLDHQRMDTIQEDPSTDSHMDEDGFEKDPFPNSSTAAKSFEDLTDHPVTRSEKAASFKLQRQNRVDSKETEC

[14] = ADAM10 inhibitors, peptide cleavage, dose response, biochemical, QFRET (AID 743254);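 note: ADAM10 enzyme with the DM2 quenched FRET peptide as substrate; EDANS fluorescence gain as the protease cuts the substrate; inhibitor potency against ADAM10 proteolytic activity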
[15] = inhibitors of Vif binding to APOBEC3G peptide, primary screen, biochemical, TR-FRET, GST-Vif 1-94, biotin-A3G peptide, dose response retest (AID 1117319); type: functional;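 note: TR-FRET signal of purified GST-Vif binding a biotinylated A3G peptide; inhibitors lower the FRET signal by blocking Vif and A3G binding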
[16] = cytotoxicity toward HT-29 cells – cell-based, CellTiter-Glo luminescence, IC50, dose response (AID 1117330); type: functional
[17] = Concentration-dependent survival of SW480 colon cancer line, luminescence detection with CellTiter-Glo, half-maximal inhibitory concentration (AID 1117338); type: functional
[18] = CellTiter-Glo luminescent dose response of DLD-1 viability loss (AID 1117352); type: functional
[19] = RKO cell viability reduction, dose response, CellTiter-Glo luminescence (AID 1117322); type: functional
[20] = cytotoxicity toward HCT116 cells – cell-based, CellTiter-Glo luminescence, IC50, dose response (AID 1117332); type: functional; conditions: HCT-116
[21] = cytotoxicity toward Colo320 cells – cell-based, CellTiter-Glo luminescence, IC50, dose response (AID 1117334); type: functional; conditions: COLO 320
[22] = SNU-C1 cell viability reduction, dose response, CellTiter-Glo luminescence (AID 1117323); type: functional, cell-based

Question: Which results are given for `Clc1ccc(SCCOCCN2CCc3ccccc3C2)cc1`?
Answer: EC50 [1]: < 0.1 µM (active); EC50 (cells): 0.081 µM (active); EC50 [2]: > 60 µM (not active)

Question: For `CN1CCN(C(=S)NC(=O)c2ccc(Cl)cc2)CC1`, which IC50 [3] is on record?
Answer: 132 µM (active)

Question: With `Cc1ccc2nc(-c3cccc(NC(=O)c4ccc5c(c4)OCCO5)c3)oc2c1` as the molecule, how does the EC50 [4] read?
Answer: 6.12 µM (active)

Question: And the EC50 [5]?
Answer: 6.12 µM (active)

Question: Which IC50 [6] does the source give for `Cc1ccc(OCC(=O)Nc2ccc(-c3nnc(-c4ccco4)o3)cc2)cc1` here?
Answer: > 100 µM (not active)

Question: Which IC50 [6] does the source give for `Cn1c(=O)oc2cc(S(=O)(=O)N3CCCC(C(=O)N4CCn5c4nc4ccccc45)C3)ccc21` (stereo not given) here?
Answer: > 100 µM (not active)

Question: With `O=C(COC(=O)Cc1ccc(S(=O)(=O)N2CCOCC2)s1)NCc1ccccc1` as the molecule, how does the EC50 [7] read?
Answer: 39.8 µM (active)

Question: Which IC50 [8] does the source give for `COc1ccc(/C=C/C(=O)c2ccc(OC)cc2OC)cc1` here?
Answer: > 10 µM (inactive)

Question: And the IC50 [9]?
Answer: > 10 µM (inactive)

Question: For `C[C@H]1CCCCO[C@@H](CN(C)S(=O)(=O)c2cccs2)[C@@H](C)CN([C@@H](C)CO)C(=O)c2cc(NS(=O)(=O)c3ccc(Cl)cc3)ccc2O1`, which AC50 [10] is on record?
Answer: 14.1 µM (active)

Question: What about the AC50 [11] of the same molecule?
Answer: 42.6 µM (active)

Question: And the AC50 [12]?
Answer: > 70 µM (inactive)

Question: What about the AC50 (Paired box protein Pax-8) of the same molecule?
Answer: 7.93 µM (active)

Question: With `Cc1ccc(-n2c(Cc3cccs3)nnc2SCC(=O)Nc2ccc(OCc3ccccc3)cc2)cc1` as the molecule, how does the IC50 [13] read?
Answer: > 69.5 µM (inactive)

Question: What about the IC50 [14] of the same molecule?
Answer: > 69.5 µM (inactive)

Question: For `CN(C)c1ccc(/C=N\NC(=O)c2csnn2)cc1`, which IC50 [15] is on record?
Answer: > 100 µM (active)

Question: Which results are given for `Cc1c(C)c2c(c(C)c1O)CC[C@@](C)(CCC[C@H](C)CCC[C@H](C)CCCC(C)C)O2` [alpha-TOCHOPHEROL]?
Answer: IC50 [16]: > 20 µM (inactive); IC50 [17]: > 20 µM (inactive); IC50 [18]: > 20 µM (inactive); IC50 [19]: 2.61 µM (active); IC50 [20]: > 20 µM (inactive); IC50 [21]: > 20 µM (inactive); IC50 [22]: > 20 µM (inactive)
